Results on two compounds are retold here after patent US20250333421A1, “PYRIDAZINES OR 1,2,4-TRIAZINES SUBSTITUTED BY SPIROCYCLIC AMINES” (Janssen Pharmaceutica NV, priority 2021, published 2025).

One assay deals with MOLM14 cells. Description: Proliferation assay (spheroid assay) in MOLM14. In kind it is cell-based. The note with it: Homo sapiens, MOLM-14, 192 h; MOLM14 (MLL-AF9), 8 days, confluence as measure of spheroid size; read-out: spheroid assay_OneTime MOLM14 IC50. The protocol:
(§1) The anti-proliferative effect of menin/MLL protein/protein interaction inhibitor test compounds was assessed in human leukemia cell lines. The cell line MOLM14 harbors a MLL translocation and expresses the MLL fusion proteins MLL-AF9, respectively, as well as the wildtype protein from the second allele. […] KO-52 was used as a control cell line containing two MLL (KMT2A) wildtype alleles in order to exclude compounds that display general cytotoxic effects.
MOLM14 cells were cultured in RPMI-1640 (Sigma Aldrich) supplemented with 10% heat-inactivated fetal bovine serum (HyClone), 2 mM L-glutamine (Sigma Aldrich) and 50 µg/ml gentamycin (Gibco). KO-52 cell lines were propagated in alpha-MEM (Sigma Aldrich) supplemented with 20% heat-inactivated fetal bovine serum (HyClone), 2 mM L-glutamine (Sigma Aldrich) and 50 µg/ml gentamycin (Gibco).
In order to assess the anti-proliferative effects, 200 MOLM14 cells, or 300 KO-52 cells were seeded in 200 μl media per well in 96-well round bottom, ultra-low attachment plates (Costar, catalogue number 7007). Cell seeding numbers were chosen based on growth curves to ensure linear growth throughout the experiment. Test compounds were added at different concentrations and the DMSO content was normalized to 0.3%. Cells were incubated for 8 days at 37° C. and 5% CO2. Spheroid like growth was measured in real-time by live-cell imaging (IncuCyteZOOM, Essenbio, 4× objective) acquiring images at day 8. Confluence (%) as a measure of spheroid size was determined using an integrated analysis tool.
In order to determine the effect of the test compounds over time, the confluence in each well as a measure of spheroid size, was calculated. Confluence of the highest dose of a reference compound was used as baseline for the LC (Low control) and the confluence of DMSO treated cells was used as 0% cytotoxicity (High Control, HC).
Absolute IC50 values were calculated as percent change in confluence as follows:
LC=Low Control: cells treated with e.g. 1 μM of the cytotoxic agent staurosporin, or e.g. cells treated with a high concentration of an alternative reference compound
GraphPad Prism (version 7.00) was used to calculate the IC50. Dose-response equation was used for the plot of % Effect vs Log10 compound concentration with a variable slope and fixing the maximum to 100% and the minimum to 0%.

In the next assay the test system is KO-52 cells. Put plainly: Proliferation assay (spheroid assay) in KO-52 control cell line. The format is cell-based. The note with it: Homo sapiens, 192 h; KO-52 (MLL wildtype control), 8 days, confluence as measure of spheroid size; read-out: spheroid assay_OneTime KO-52 IC50. The protocol:
as §1
MOLM14 cells were cultured in RPMI-1640 (Sigma Aldrich) supplemented with 10% heat-inactivated fetal bovine serum (HyClone), 2 mM L-glutamine (Sigma Aldrich) and 50 µg/ml gentamycin (Gibco). […]
In order to assess the anti-proliferative effects, 200 MOLM14 cells, or 300 KO-52 cells were seeded in 200 μl media per well in 96-well round bottom, ultra-low attachment plates (Costar, catalogue number 7007). […] Spheroid like growth was measured in real-time by live-cell imaging (IncuCyteZOOM, Essenbio, 4× objective) acquiring images at day 8. Confluence (%) as a measure of spheroid size was determined using an integrated analysis tool.
In order to determine the effect of the test compounds over time, the confluence in each well as a measure of spheroid size, was calculated. […]
Absolute IC50 values were calculated as percent change in confluence as follows: […]

Another assay addresses T1, Menin/MLL (Homo sapiens, UniProt O00255, T541A).
T1 construct: Menin (a.a 1-610-6xhis tag)
T1 sequence (O00255 with tags, fused parts or gaps T541A): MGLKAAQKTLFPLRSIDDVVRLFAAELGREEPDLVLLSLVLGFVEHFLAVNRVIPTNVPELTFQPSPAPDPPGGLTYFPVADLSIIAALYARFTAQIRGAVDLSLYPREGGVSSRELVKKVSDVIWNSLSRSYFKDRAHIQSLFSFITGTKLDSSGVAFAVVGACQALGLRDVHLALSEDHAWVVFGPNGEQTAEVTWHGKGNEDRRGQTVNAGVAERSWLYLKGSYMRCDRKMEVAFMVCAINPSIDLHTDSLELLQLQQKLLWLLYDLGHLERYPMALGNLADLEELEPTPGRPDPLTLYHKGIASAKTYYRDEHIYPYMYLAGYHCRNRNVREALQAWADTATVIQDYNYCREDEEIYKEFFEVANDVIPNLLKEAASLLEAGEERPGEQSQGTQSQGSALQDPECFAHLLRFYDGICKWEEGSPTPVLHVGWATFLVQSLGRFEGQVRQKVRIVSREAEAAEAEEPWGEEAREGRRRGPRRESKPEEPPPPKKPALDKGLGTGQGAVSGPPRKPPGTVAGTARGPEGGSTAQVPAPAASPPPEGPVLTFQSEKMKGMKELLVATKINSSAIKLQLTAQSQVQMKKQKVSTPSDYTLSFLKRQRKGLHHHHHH
Description: Menin/MLL homogenous time-resolved fluorescence (HTRF) assay. In kind it is binding. The note with it: 30 min incubation of test compound with terbium chelate-labeled menin; FITC-MBM1 peptide. The protocol: 1) Menin/MLL homogenous time-resolved fluorescence (HTRF) assay
To an untreated, white 384-well microtiter plate was added 40 nL 200X test compound in DMSO and 4 μL 2X terbium chelate-labeled menin (vide infra for preparation) in assay buffer (40 mM Tris-HCl, pH 7.5, 50 mM NaCl, 1 mM DTT (dithiothreitol) and 0.05% Pluronic F-127). After incubation of test compound and terbium chelate-labeled menin for 30 min at ambient temperature, 4 μL 2X FITC-MBM1 peptide (FITC-β-alanine-SARWRFPARPGT-NH2 (SEQ ID NO: 2)) (“FITC” means fluorescein isothiocyanate) in assay buffer was added, the microtiter plate centrifuged at 1000 rpm for 1 min and the assay mixtures incubated for 15 min at ambient temperature. The relative amount of menin FITC--MBM1 complex present in an assay mixture is determined by measuring the homogenous time-resolved fluorescence (HTRF) of the terbium/FITC donor/acceptor fluorphore pair using an EnVision microplate reader (ex. 337 nm/terbium em. 490 nm/FITC em. 520 nm) at ambient temperature. The degree of fluorescence resonance energy transfer (the HTRF value) is expressed as the ratio of the fluorescence emission intensities of the FITC and terbium fluorophores (F^em 520 nm/F^em 490 nm). The final concentrations of reagents in the binding assay are 200 pM terbium chelate-labeled menin, 75 nM FITC-MBM1 peptide and 0.5% DMSO in assay buffer. Dose-response titrations of test compounds are conducted using an 11 point, four-fold serial dilution scheme, starting typically at 10 μM.
Compound potencies were determined by first calculating % inhibition at each compound concentration according to equation 1: […]
Where LC and HC are the HTRF values of the assay in the presence or absence of a saturating concentration of a compound that competes with FITC-MBM1 for binding to menin, and HTRF^compound is the measured HTRF value in the presence of the test compound. HC and LC HTRF values represent an average of at least 10 replicates per plate.
Where Bottom and Top are the lower and upper asymptotes of the dose-response curve, respectively, IC50 is the concentration of compound that yields 50% inhibition of signal and h is the Hill coefficient. IC50 values below 0.1 nM in the HTRF assay were reported as 0.1 nM in the Table below (detection limit).
Preparation of Terbium cryptate labeling of Menin: Menin (a.a 1-610-6xhis tag, 2.3 mg/mL in 20 mM Hepes (2-[4-(2-Hydroxyethyl)-1-piperazinyl]ethane sulfonic acid), 80 mM NaCl, 5 mM DTT (Dithiothreitol), pH 7.5) was labeled with terbium cryptate as follows. 200 μg of Menin was buffer exchanged into lx Hepes buffer. 6.67 μM Menin was incubated with 8-fold molar excess NHS (N-hydroxysuccinimide)-terbium cryptate for 40 minutes at room temperature. Half of the labeled protein was purified away from free label by running the reaction over a NAP5 column with elution buffer (0.1M Hepes, pH 7+0.1% BSA (bovine serum albumin)). The other half was eluted with 0.1 M phosphate buffered saline (PBS), pH7. 400 μl of eluent was collected for each, aliquoted and frozen at −80° C. The final concentration of terbium-labeled Menin protein was 115 μg/mL in Hepes buffer and 85 μg/mL in PBS buffer, respectively.

For orientation: IC50 means the concentration needed to halve the response being measured. As to `CCN(C(=O)c1cc(F)ccc1Oc1nncnc1N1CCC2(C1)CN(C(CCCN(C)CCSC)C(C)C)C2)C(C)C` (single isomer, unassigned) [Compound 1], the IC50 was 50 nM with MOLM14 cells and 11900 nM with KO-52 cells.
Turning to `CCN(C(=O)c1cc(F)ccc1Oc1nncnc1N1CCC2(C1)CN(C(CCCN(C)CCOC(F)(F)F)C(C)C)C2)C(C)C` (single isomer, unassigned) [Compound 2], the IC50 came out at 0.376 nM at Menin/MLL, 20 nM in the assay on MOLM14 cells and 14600 nM in the assay with KO-52 cells.
